Measured values as given in patent US4178450A, “2,5-Dimethyl-benzo(b) thiene (3,2-f) morphan and precursor thereof” (priority 1977, dated 1979).

What was measured:
[1] = test system: I.C.R. Swiss albino mice; assay: Thermal analgesia, 55° C. "hot plate" technique; format: in vivo; settings: for Jumping time: 30 min before 55° C. hot plate, x ± S.E.M.; for thermal analgesic activity (in words): hot plate, i.p.
Procedure: The thermal analgesic effect has been studied in I.C.R. Swiss albino mice. The 55° C. "hot plate" technique was used. Batches of 10 mice were made. The products in study were administered intraperitoneally and after 30 minutes the mice were placed on the hot plate and note was made, in seconds, of the time it took them to jump. Batches were made of control animals injected only with distilled water.

[2] = test system: I.C.R. Swiss albino mice; assay: Chemical analgesia, acetic acid writhing technique; format: in vivo; settings: for No. of writhes: 30 min before acetic acid, noted 20 min after, x ± S.E.M.; for analgesic activity compared with dextropropoxyphene (in words): acetic acid writhing, i.p.
Procedure: 2. Chemical analgesia The analgesic effect has been studied in I.C.R. Swiss albino mice, employing the acetic acid writhing technique. Batches of 10 mice were made.
The products studied were administered intraperitoneally, and after 30 minutes the mice were injected intraperitoneally with 0.25 ml of 1% acetic acid. A batch of control animals received only the acetic acid. Note was made of the number of writhes in each mouse 20 minutes following injection of the acetic acid.

[3] = Acute toxicity (LD50, Litchfield-Wilcoxon test, intraperitoneal); design: species or system I.C.R. Swiss albino mice; settings: mouse, in vivo, ip, mice, deaths noted 48 hours after treatment
Procedure: A--ACUTE TOXICITY Acute toxicity studies have been made in I.C.R. Swiss albino mice of both sexes of a weight of 30±2 g, kept without food for 24 hours prior to the experiment. Ambient temperature and relative humidity were held constant. The products were administered intraperitoneally, with the number of deaths noted 48 hours from the moment of treatment. Calculation of the lethal dose 50 (LD50) was made by the Litchfield-Wilcoxon test.

[4] = 25 mg/kg i.p., control 30.9 ± 5.016
[5] = 30 mg/kg i.p., control 122.1 ± 9.15
[6] = 50 mg/kg i.p., control 48.8 ± 5.033
[7] = 25 mg/kg i.p., control 109.9 ± 6.362

Row | SMILES | Jumping time [1, 4] [s] | thermal analgesic activity (in words) [1] | No. of writhes [2, 5] | analgesic activity compared with dextropropoxyphene (in words) [2] | LD50 at 48 h [3] [mg/kg] | Jumping time [1, 6] [s] | No. of writhes [2, 7]
1 | CN1CCC2(C)CC1Cc1sc3ccccc3c12 (racemic) [Product I, 2,5-dimethyl-benzo[b]thiene[3,2-f]morphan] | 48.9 ± 8.956 | lacks any thermal analgesic activity | 44.3 ± 6.14 | has analgesic activity, but of lesser intensity than that of dextropropoxyphene | 90.8 |  | 
2 | CCC(=O)O[C@](Cc1ccccc1)(c1ccccc1)[C@H](C)CN(C)C [Dextropropoxyphene, dextropropoxyphene, reference compound] | 70.8 ± 13.592 |  | 24 ± 6.03 |  |  | 91.3 ± 7.894 | 27.8 ± 8.365
3 | CC1=CCN(C)C(Cc2cc3ccccc3s2)C1 (centres unmarked) [Product II, 2-(2-benzo[b]thienylmethyl)-1,4-dimethyl-1,2,3,6-tetrahydropyridine] |  | lacks any thermal analgesic activity |  | not significantly different from that of dextropropoxyphene | 916 | 63 ± 8.368 | 41.2 ± 6.024
